Measurements from the NIST ThermoML archive (doi:10.1016/j.fluid.2005.12.016).

Assay: osmotic coefficient (dimensionless); mn = molality of the nth substance listed, in mol/kg
Details: 298.15 K, 101 kPa, Liquid, isopiestic method

OCCC(O)CO (stereo not given) [1,2,4-butanetriol] + O
Details	osmotic coefficient
m1 = 0.7526	0.9857
m1 = 1.34	0.9912
m1 = 1.929	0.9968
m1 = 2.745	1.0059
m1 = 2.8	1.0065
m1 = 3.691	1.019
m1 = 5.916	1.062

CCC(O)CO (stereo not given) [1,2-butanediol] + O
Details	osmotic coefficient
m1 = 0.2302	0.9585
m1 = 0.803	0.9286
m1 = 0.8128	0.9282
m1 = 1.046	0.9205
m1 = 1.056	0.9202
m1 = 2.093	0.8967
m1 = 3.038	0.8831
m1 = 3.044	0.8831
m1 = 4.304	0.8709

CC(O)CCO (stereo not given) [1,3-butanediol] + O
Details	osmotic coefficient
m1 = 0.2289	0.9766
m1 = 0.7849	0.9509
m1 = 1.051	0.9416
m1 = 2.968	0.9042
m1 = 2.969	0.9042
m1 = 4.186	0.8953
m1 = 4.197	0.8953

OCCCCO [1,4-butanediol] + O
Details	osmotic coefficient
m1 = 0.2252	0.977
m1 = 0.778	0.9474
m1 = 0.7931	0.9467
m1 = 1.054	0.9349
m1 = 2.148	0.892
m1 = 2.158	0.8916
m1 = 3.12	0.8619
m1 = 4.499	0.8341
m1 = 4.501	0.8341

CC(O)C(C)O (stereo not given) [2,3-butanediol] + O
Details	osmotic coefficient
m1 = 0.6071	0.9429
m1 = 0.8087	0.9359
m1 = 1.995	0.913
m1 = 2.96	0.9043

OC[C@@H](O)[C@@H](O)CO [meso-1,2,3,4-butanetetrol] + O
Details	osmotic coefficient
m1 = 0.2173	1.0019
m1 = 0.2196	1.0019
m1 = 0.5657	1.011
m1 = 0.5662	1.011
m1 = 0.7365	1.014
m1 = 0.74	1.014
m1 = 0.9458	1.017
m1 = 1.113	1.019
m1 = 1.114	1.019
